Assay results: ChEMBL document CHEMBL2321687, “Identification of a novel arylpiperazine scaffold for fatty acid amide hydrolase inhibition with improved drug disposition properties” (Bioorg Med Chem Lett, 2013)

Legend:
[1] = target: 5-hydroxytryptamine receptor 1A (Homo sapiens) (UniProt P08908); assay: Displacement of [3H]8-OH-DPAT from human recombinant 5-HT1A receptor expressed in HEK293 cells at 1 uM; format: cell-based
[2] = target: Vasopressin V1a receptor (Homo sapiens) (UniProt P37288); assay: Displacement of [3H]AVP from human recombinant V1a receptor expressed in CHO cells at 1 uM; format: cell-based
[3] = target: Neuromedin-K receptor (Homo sapiens) (UniProt P29371); assay: Displacement of [3H]SR142801 from human recombinant NK3 receptor expressed in CHO cells at 1 uM; format: cell-based
[4] = target: Muscarinic acetylcholine receptor M2 (Homo sapiens) (UniProt P08172); assay: Displacement of [3H]AF-DX384 from human recombinant muscarinic M2 receptor expressed in CHO cells at 1 uM; format: cell-based
Sequence of Muscarinic acetylcholine receptor M2 (Homo sapiens) (P08172 whole entry): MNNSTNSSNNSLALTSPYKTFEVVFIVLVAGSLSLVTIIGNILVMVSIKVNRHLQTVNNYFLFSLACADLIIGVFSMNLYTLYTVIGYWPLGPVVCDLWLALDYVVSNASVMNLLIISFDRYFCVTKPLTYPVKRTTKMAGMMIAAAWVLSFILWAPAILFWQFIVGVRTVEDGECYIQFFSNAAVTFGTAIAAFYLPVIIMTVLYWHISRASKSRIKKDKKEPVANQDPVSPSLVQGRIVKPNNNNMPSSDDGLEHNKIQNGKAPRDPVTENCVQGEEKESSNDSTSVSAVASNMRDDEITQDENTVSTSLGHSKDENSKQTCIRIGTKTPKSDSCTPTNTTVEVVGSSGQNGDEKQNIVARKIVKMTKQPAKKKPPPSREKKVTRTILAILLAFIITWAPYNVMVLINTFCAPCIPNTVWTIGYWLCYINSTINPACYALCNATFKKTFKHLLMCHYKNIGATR

Rattus norvegicus [5] = organism: Rattus norvegicus; assay: Displacement of [3H]flunitrazepam from rat central BZD receptor in cerebral cortex; format: tissue-based; conditions: concentration not given here
[6] = target: Adenosine receptor A3 (Homo sapiens) (UniProt P0DMS8); assay: Displacement of [3H]AB-MECA from human recombinant adenosine A3 receptor expressed in HEK293 cells at 1 uM; format: cell-based
[7] = target: Muscarinic acetylcholine receptor M3 (Homo sapiens) (UniProt P20309); assay: Displacement of [3H]4-DAMP from human recombinant muscarinic M3 receptor expressed in CHO cells at 1 uM; format: cell-based
Sequence of Muscarinic acetylcholine receptor M3 (Homo sapiens) (P20309 whole entry, looked up): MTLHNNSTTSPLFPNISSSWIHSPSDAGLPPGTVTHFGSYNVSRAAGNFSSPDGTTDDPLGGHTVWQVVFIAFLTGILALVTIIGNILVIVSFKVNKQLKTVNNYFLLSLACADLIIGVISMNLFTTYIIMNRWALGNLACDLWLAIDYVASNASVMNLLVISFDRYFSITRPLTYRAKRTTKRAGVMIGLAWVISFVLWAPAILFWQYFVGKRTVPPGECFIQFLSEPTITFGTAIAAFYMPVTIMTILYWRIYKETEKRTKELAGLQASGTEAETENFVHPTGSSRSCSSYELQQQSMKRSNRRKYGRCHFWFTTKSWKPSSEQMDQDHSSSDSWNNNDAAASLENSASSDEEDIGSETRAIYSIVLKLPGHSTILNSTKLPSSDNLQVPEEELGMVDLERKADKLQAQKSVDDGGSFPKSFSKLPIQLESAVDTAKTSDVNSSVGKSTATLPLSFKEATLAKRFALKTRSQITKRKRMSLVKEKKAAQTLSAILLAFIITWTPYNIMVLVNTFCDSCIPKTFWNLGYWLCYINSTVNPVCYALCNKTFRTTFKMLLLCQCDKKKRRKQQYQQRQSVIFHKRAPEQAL

[8] = target: Sodium-dependent serotonin transporter (Homo sapiens) (UniProt P31645); assay: Displacement of [3H]imipramine from human recombinant 5-HT transporter expressed in CHO cells at 1 uM; format: cell-based
CHO = assay: Displacement of [3H]DADLE from human recombinant delta2 opioid receptor expressed in CHO cells at 1 uM; format: cell-based
Rattus norvegicus [9] = organism: Rattus norvegicus; assay: Displacement of [35S]TBPS from rat GABA gated chloride channel in cerebral cortex; format: tissue-based; conditions: concentration not given here
[10] = target: B2 bradykinin receptor (Homo sapiens) (UniProt P30411); assay: Displacement of [3H]bradykinin from human recombinant B2 receptor expressed in CHO cells at 1 uM; format: cell-based
[11] = target: 5-hydroxytryptamine receptor 6 (Homo sapiens) (UniProt P50406); assay: Displacement of [3H]LSD from human recombinant 5-HT6 receptor expressed in CHO cells at 1 uM; format: cell-based
[12] = target: Substance-K receptor (Homo sapiens) (UniProt P21452); assay: Displacement of [125I]NKA from human recombinant NK2 receptor expressed in CHO cells at 1 uM; format: cell-based
[13] = target: D(2) dopamine receptor (Homo sapiens) (UniProt P14416); assay: Displacement of [3H]spiperone from human recombinant D2S receptor expressed in HEK293 cells at 1 uM; format: cell-based
Sequence of D(2) dopamine receptor (Homo sapiens) (P14416 whole entry): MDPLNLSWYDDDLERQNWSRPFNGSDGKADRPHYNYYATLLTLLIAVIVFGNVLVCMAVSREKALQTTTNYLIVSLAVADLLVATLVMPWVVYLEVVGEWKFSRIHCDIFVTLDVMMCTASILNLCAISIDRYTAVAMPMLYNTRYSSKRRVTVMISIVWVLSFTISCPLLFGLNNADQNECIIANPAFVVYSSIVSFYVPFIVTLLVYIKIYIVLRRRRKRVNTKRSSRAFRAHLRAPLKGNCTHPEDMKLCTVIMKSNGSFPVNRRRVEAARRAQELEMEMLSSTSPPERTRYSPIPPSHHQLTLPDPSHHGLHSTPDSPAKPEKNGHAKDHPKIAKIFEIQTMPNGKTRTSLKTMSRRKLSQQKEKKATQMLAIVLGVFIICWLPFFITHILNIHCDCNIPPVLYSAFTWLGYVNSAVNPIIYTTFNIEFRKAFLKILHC

[14] = target: 5-hydroxytryptamine receptor 5A (Homo sapiens) (UniProt P47898); assay: Displacement of [3H]LSD from human recombinant 5-HT5A receptor expressed in CHO cells at 1 uM; format: cell-based
[15] = target: Kappa-type opioid receptor (Rattus norvegicus) (UniProt P34975); assay: Displacement of [3H]U69593 from rat recombinant kappa opioid receptor expressed in CHO cells at 1 uM; format: cell-based
[16] = target: Adenosine receptor A1 (Homo sapiens) (UniProt P30542); assay: Displacement of [3H]DPCPX from human recombinant adenosine A1 receptor expressed in CHO cells at 1 uM; format: cell-based
Sequence of Adenosine receptor A1 (Homo sapiens) (P30542 whole entry): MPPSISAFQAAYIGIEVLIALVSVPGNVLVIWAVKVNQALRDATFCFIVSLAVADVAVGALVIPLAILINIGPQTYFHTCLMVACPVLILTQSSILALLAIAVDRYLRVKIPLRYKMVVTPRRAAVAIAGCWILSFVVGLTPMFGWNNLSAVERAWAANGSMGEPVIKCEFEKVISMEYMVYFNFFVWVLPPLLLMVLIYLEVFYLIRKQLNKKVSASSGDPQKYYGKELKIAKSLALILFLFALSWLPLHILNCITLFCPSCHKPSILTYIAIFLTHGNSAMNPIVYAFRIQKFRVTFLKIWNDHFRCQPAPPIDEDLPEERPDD

[17] = target: Beta-1 adrenergic receptor (Homo sapiens) (UniProt P08588); assay: Displacement of [3H](-)CGP12177 from human recombinant beta1 receptor expressed in HEK293 cells at 1 uM; format: cell-based
[18] = target: Histamine H2 receptor (Homo sapiens) (UniProt P25021); assay: Displacement of [125I]APT from human recombinant H2 receptor expressed in CHO cells at 1 uM; format: cell-based
[19] = target: Melanocortin receptor 4 (Homo sapiens) (UniProt P32245); assay: Displacement of [125I]NDP-a-MSH from human recombinant MC4 receptor expressed in CHO cells at 1 uM; format: cell-based
[20] = target: Type-1 angiotensin II receptor (Homo sapiens) (UniProt P30556); assay: Displacement of [125I][Sar1,Ile8]-AT II from human recombinant AT1 receptor expressed in HEK293 cells at 1 uM; format: cell-based
[21] = target: Mu-type opioid receptor (Homo sapiens) (UniProt P35372); assay: Displacement of [3H]DAMGO from human recombinant mu opioid receptor expressed in HEK293 cells at 1 uM; format: cell-based
Sequence of Mu-type opioid receptor (Homo sapiens) (P35372 whole entry): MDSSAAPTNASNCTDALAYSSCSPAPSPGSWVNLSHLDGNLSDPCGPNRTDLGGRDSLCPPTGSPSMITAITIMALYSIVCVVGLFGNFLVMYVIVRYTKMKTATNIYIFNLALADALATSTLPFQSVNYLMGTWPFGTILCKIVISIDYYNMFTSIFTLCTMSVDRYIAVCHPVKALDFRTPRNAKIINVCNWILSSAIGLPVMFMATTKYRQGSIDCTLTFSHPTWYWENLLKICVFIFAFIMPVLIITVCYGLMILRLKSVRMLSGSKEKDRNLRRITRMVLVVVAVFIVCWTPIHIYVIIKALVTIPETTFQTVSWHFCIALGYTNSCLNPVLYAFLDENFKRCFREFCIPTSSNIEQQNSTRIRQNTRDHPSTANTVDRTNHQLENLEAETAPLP

[22] = target: Adrenergic receptor alpha-2 (Rattus norvegicus) (UniProt P22086+P19328+P22909); assay: Displacement of [3H]RX821002 from rat alpha2 receptor in cerebral cortex; format: tissue-based; conditions: concentration not given here
[23] = target: C-X-C chemokine receptor type 2 (Homo sapiens) (UniProt P25025); assay: Displacement of [125I]IL-8 from human recombinant CXCR2 receptor expressed in HEK293 cells at 1 uM; format: cell-based
[24] = target: Neuropeptide Y receptor type 2 (Homo sapiens) (UniProt P49146); assay: Displacement of [125I]peptideYY from human Y2 receptor in KAN-TS cells; format: cell-based; conditions: concentration not given here
Sequence of Neuropeptide Y receptor type 2 (Homo sapiens) (P49146 whole entry): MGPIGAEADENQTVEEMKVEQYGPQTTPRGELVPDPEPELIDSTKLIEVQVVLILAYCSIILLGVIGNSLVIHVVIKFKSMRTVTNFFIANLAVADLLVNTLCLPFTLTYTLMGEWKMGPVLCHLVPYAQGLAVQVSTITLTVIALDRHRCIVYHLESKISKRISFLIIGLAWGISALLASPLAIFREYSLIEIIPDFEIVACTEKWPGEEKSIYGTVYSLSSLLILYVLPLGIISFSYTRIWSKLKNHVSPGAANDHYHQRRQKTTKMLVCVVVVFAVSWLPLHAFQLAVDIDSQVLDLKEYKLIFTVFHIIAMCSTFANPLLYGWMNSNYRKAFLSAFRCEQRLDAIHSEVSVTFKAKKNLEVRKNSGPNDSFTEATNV

Rattus norvegicus [25] = organism: Rattus norvegicus; assay: Displacement of [3H]GABA from rat GABA in cerebral cortex; format: tissue-based; conditions: concentration not given here
[26] = target: Nociceptin receptor (Homo sapiens) (UniProt P41146); assay: Displacement of [3H]Nociceptin from human recombinant ORL1 receptor expressed in HEK293 cells at 1 uM; format: cell-based
Sequence of Nociceptin receptor (Homo sapiens) (P41146 whole entry): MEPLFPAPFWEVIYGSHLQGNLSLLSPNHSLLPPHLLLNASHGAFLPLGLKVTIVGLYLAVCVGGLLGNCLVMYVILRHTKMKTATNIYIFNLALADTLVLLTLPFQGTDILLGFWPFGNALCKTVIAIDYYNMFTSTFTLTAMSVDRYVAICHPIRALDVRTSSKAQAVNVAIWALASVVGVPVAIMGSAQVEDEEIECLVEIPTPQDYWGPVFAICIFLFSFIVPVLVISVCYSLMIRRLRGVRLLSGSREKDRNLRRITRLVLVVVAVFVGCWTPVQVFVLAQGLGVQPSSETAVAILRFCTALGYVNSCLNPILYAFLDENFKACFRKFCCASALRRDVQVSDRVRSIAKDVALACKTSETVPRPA

[27] = target: Somatostatin receptor (Mus musculus) (UniProt P30935+O08858+P30875+P30873+P49660); assay: Displacement of [125I]Tyr11-somatostatin-14 from mouse sst receptor in AtT20 cells; format: cell-based; conditions: concentration not given here
[28] = target: Adrenergic receptor alpha-1 (Rattus norvegicus) (UniProt P15823+P23944+P43140); assay: Displacement of [3H]prazosin from rat alpha1 receptor in cerebral cortex; format: tissue-based; conditions: concentration not given here
[29] = target: D(1A) dopamine receptor (Homo sapiens) (UniProt P21728); assay: Displacement of [3H]SCH23390 from human recombinant D1 receptor expressed in CHO cells at 1 uM; format: cell-based
Rattus norvegicus [30] = organism: Rattus norvegicus; assay: Displacement of [125I]a-dendrotoxin from rat K+ V channel in cerebral cortex; format: tissue-based; conditions: concentration not given here
[31] = target: Melatonin receptor type 1A (Homo sapiens) (UniProt P48039); assay: Displacement of [125I]2-iodomelatonin from human recombinant MT1 receptor expressed in CHO cells at 1 uM; format: cell-based
[32] = target: Cholecystokinin receptor type A (Homo sapiens) (UniProt P32238); assay: Displacement of [125I]CCK-8 from human recombinant CCKA receptor expressed in CHO cells at 1 uM; format: cell-based
[33] = target: Beta-2 adrenergic receptor (Homo sapiens) (UniProt P07550); assay: Displacement of [3H](-)CGP12177 from human recombinant beta2 receptor expressed in CHO cells at 1 uM; format: cell-based
Sequence of Beta-2 adrenergic receptor (Homo sapiens) (P07550 whole entry, looked up): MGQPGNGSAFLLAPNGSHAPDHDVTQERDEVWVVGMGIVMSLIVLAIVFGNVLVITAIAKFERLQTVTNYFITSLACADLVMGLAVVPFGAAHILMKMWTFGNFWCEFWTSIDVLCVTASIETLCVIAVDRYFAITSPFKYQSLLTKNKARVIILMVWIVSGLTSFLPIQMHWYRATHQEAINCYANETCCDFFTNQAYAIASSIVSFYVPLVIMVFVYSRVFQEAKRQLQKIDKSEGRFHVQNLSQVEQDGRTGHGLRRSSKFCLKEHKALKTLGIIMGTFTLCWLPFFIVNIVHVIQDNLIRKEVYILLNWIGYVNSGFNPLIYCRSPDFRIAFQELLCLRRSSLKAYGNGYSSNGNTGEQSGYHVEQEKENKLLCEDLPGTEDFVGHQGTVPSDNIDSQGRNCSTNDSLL

[34] = target: 5-hydroxytryptamine receptor 3A (Homo sapiens) (UniProt P46098); assay: Displacement of [3H]BRL43694 from human recombinant 5-HT3 receptor expressed in CHO cells at 1 uM; format: cell-based
Sequence of 5-hydroxytryptamine receptor 3A (Homo sapiens) (P46098 whole entry): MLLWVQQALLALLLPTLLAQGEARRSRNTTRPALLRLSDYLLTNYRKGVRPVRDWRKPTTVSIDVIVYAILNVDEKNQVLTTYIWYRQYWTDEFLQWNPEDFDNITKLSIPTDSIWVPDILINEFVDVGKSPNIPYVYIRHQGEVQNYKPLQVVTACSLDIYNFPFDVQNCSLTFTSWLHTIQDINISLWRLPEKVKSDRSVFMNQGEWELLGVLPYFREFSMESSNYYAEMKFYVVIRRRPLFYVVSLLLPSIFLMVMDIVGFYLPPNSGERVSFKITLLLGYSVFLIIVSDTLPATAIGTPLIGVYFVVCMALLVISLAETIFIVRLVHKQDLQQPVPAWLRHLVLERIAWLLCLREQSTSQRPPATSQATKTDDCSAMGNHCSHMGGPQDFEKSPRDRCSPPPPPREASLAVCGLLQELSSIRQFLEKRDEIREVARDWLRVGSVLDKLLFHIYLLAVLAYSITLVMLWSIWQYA

[35] = target: 5-hydroxytryptamine receptor 1B (Rattus norvegicus) (UniProt P28564); assay: Displacement of [125I]CYP from rat 5-HT1B receptor in cerebral cortex; format: tissue-based; conditions: concentration not given here
[36] = target: 5-hydroxytryptamine receptor 2B (Homo sapiens) (UniProt P41595); assay: Displacement of [125I](+/-)DOI from human recombinant 5-HT2B receptor expressed in CHO cells at 1 uM; format: cell-based
Sequence of 5-hydroxytryptamine receptor 2B (Homo sapiens) (P41595 whole entry): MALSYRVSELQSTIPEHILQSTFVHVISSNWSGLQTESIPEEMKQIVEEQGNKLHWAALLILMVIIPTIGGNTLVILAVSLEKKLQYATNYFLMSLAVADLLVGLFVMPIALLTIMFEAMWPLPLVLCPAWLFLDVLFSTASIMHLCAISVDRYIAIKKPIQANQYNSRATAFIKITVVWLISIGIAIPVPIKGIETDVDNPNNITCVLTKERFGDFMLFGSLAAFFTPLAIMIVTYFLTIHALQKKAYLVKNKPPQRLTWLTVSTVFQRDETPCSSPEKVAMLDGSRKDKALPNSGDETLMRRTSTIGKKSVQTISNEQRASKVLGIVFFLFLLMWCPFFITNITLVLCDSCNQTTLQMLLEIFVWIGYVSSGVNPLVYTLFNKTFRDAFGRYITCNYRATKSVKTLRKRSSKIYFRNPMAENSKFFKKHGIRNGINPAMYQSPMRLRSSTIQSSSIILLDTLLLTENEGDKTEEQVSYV

[37] = target: 5-hydroxytryptamine receptor 7 (Homo sapiens) (UniProt P34969); assay: Displacement of [3H]LSD from human recombinant 5-HT7 receptor expressed in CHO cells at 1 uM; format: cell-based
[38] = target: Histamine H1 receptor (Homo sapiens) (UniProt P35367); assay: Displacement of [3H]pyrilamine from human recombinant H1 receptor expressed in HEK293 cells at 1 uM; format: cell-based
[39] = target: Endothelin-1 receptor (Homo sapiens) (UniProt P25101); assay: Displacement of [125I]endothelin-1 from human recombinant ETA receptor expressed in CHO cells at 1 uM; format: cell-based
[40] = target: Cannabinoid receptor 1 (Homo sapiens) (UniProt P21554); assay: Displacement of [3H]CP55940 from human recombinant CB1 receptor expressed in CHO cells at 1 uM; format: cell-based
[41] = target: Vasoactive intestinal polypeptide receptor 1 (Homo sapiens) (UniProt P32241); assay: Displacement of [125I]VIP from human recombinant VPAC1 receptor expressed in CHO cells at 1 uM; format: cell-based
[42] = target: Muscarinic acetylcholine receptor M1 (Homo sapiens) (UniProt P11229); assay: Displacement of [3H]pirenzepine from human recombinant muscarinic M1 receptor expressed in CHO cells at 1 uM; format: cell-based
[43] = target: Sodium-dependent noradrenaline transporter (Homo sapiens) (UniProt P23975); assay: Displacement of [3H]nisoxetine from human recombinant NE transporter expressed in CHO cells at 1 uM; format: cell-based
[44] = target: Thromboxane A2 receptor (Homo sapiens) (UniProt P21731); assay: Displacement of [3H]SQ29548 from human recombinant TP receptor expressed in HEK293 cells at 1 uM; format: cell-based
Sequence of Thromboxane A2 receptor (Homo sapiens) (P21731 whole entry): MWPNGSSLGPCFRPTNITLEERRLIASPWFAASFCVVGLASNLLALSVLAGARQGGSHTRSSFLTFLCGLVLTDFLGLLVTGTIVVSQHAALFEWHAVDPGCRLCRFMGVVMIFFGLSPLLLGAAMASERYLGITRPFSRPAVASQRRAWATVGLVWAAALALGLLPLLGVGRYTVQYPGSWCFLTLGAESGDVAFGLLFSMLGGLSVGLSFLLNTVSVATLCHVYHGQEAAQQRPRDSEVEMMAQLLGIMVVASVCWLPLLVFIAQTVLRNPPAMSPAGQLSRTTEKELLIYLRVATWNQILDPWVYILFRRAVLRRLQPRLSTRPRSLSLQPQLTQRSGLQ

Rattus norvegicus [45] = organism: Rattus norvegicus; assay: Displacement of [3H]batrachotoxinin from rat Na+ channel site 2 in cerebral cortex; format: tissue-based; conditions: concentration not given here
[46] = target: Adenosine receptor A2a (Homo sapiens) (UniProt P29274); assay: Displacement of [3H]CGS21680 from human recombinant adenosine A2A receptor expressed in HEK293 cells at 1 uM; format: cell-based
Rattus norvegicus [47] = organism: Rattus norvegicus; assay: Displacement of [3H](-)D888 from rat L-type Ca2+ channel verapamil site in cerebral cortex; format: tissue-based; conditions: concentration not given here
[48] = target: Sodium-dependent dopamine transporter (Homo sapiens) (UniProt Q01959); assay: Displacement of [3H]BTCP from human recombinant DA transporter expressed in CHO cells at 1 uM; format: cell-based
[49] = target: 5-hydroxytryptamine receptor 2A (Homo sapiens) (UniProt P28223); assay: Displacement of [3H]Ketanserin from human recombinant 5-HT2A receptor expressed in HEK293 cells at 1 uM; format: cell-based
[50] = target: T1, Fatty-acid amide hydrolase 1 (Mus musculus, UniProt O08914); assay: Inhibition of FAAH in mouse brain homogenate using [3Hethanolamine]AEA as substrate incubated for 20 mins prior to substrate addition measured after 15 mins by beta counting analysis; format: tissue-based
T1 sequence (O08914 whole entry): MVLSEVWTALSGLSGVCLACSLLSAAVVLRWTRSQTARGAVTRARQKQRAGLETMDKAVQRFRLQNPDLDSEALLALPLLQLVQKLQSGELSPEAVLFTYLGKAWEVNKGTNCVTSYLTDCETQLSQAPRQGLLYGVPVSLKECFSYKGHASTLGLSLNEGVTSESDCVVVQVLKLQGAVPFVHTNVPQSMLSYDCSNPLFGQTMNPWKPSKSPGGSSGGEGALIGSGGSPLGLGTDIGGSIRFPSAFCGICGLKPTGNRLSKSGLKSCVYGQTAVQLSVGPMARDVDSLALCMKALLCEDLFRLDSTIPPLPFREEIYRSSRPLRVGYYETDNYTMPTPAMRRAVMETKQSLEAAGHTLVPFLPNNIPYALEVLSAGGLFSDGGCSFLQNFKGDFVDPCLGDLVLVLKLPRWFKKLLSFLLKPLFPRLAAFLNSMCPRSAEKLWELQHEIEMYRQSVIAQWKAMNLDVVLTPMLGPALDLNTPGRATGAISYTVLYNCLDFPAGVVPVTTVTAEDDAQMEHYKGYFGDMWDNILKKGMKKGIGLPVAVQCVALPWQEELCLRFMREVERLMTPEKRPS

[51] = target: Galanin receptor type 2 (Homo sapiens) (UniProt O43603); assay: Displacement of [125I]Galanin from human recombinant GAL2 receptor expressed in CHO cells at 1 uM; format: cell-based

`CCCCCCCOc1ccc(NC(=O)Oc2cccc(N3CCNCC3)c2)cc1` showed an inhibition [1] of 97%, an inhibition [2] of 17% and an inhibition [3] of -7%. It also gave an inhibition [4] of 23%, an inhibition (Rattus norvegicus [5]) of 16% and an inhibition [6] of 4%. For the same compound, the inhibition [7] was 35%, the inhibition [8] was 36% and the inhibition (CHO) was 61%. It also gave an inhibition (Rattus norvegicus [9]) of 2%, an inhibition [10] of -5% and an inhibition [11] of 42%. The inhibition [12] was -10%, the inhibition [13] was 9% and the inhibition [14] was 27%. The inhibition [15] was 57%, the inhibition [16] was 9% and the inhibition [17] was 66%. It also gave an inhibition [18] of 27%, an inhibition [19] of 3% and an inhibition [20] of -1%. The inhibition [21] was 77%, the inhibition [22] was 52% and the inhibition [23] was -5%. The inhibition [24] was -9%, the inhibition (Rattus norvegicus [25]) was 0% and the inhibition [26] was 7%. The inhibition [27] was -2%, the inhibition [28] was 7% and the inhibition [29] was 70%. It also gave an inhibition (Rattus norvegicus [30]) of -5%, an inhibition [31] of -6% and an inhibition [32] of 1%. The inhibition [33] was 19%, the inhibition [34] was 7% and the inhibition [35] was 96%. It also gave an inhibition [36] of 91%, an inhibition [37] of 48% and an inhibition [38] of 22%. The inhibition [39] was 14%, the inhibition [40] was 30% and the inhibition [41] was -1%. The inhibition [42] was 28%, the inhibition [43] was 52% and the inhibition [44] was 1%. The inhibition (Rattus norvegicus [45]) was 32%, the inhibition [46] was 3% and the inhibition (Rattus norvegicus [47]) was 30%. For the same compound, the inhibition [48] was 103%, the inhibition [49] was 96% and the Ki [50] was greater than 500 nM. For the same compound, the inhibition [51] was -10%.
Compound `CN1CCN(c2cccc(OC(=O)NCCCCCCc3ccccc3)c2)CC1` has a Ki [50] of 240 nM.
